Measured values: ChEMBL document CHEMBL3886833, “Therapeutic prostaglandin receptor agonists” (2016)

Columns and labels:
[1] = molecular target: T1, Prostaglandin E2 receptor EP2 subtype (Homo sapiens, UniProt P43116); assay: cAMP Assay: A 384-well drug plate was prepared to contain test compounds, PGE2 and cAMP in 16 serial dilutions in triplicate, using a Biomek station. HEK-EBNA cells expressing a target PG receptor subtype (EP2 or EP4) were suspended in a stimulation buffer (HBSS, 0.1% BSA, 0.5 mM IBMX and 5 mM HEPES, pH 7.4) in a density of 10^4 cells/5 μl. The reaction was initiated by mixing 5 μL drug dilutions with 5 μl of HEK-EBNA cells in a well, carried out for 30 min at room temperature, and followed by the addition of 5 μl anti-cAMP acceptor beads in the control buffer with Tween-20 (25 mM NaCl, 0.03% Tween-20, 5 mM HEPES, pH7.4). After 30 min in the dark at room temperature, the mixtures were incubated with 15 μl biotinylated-cAMP/strpavidin donor beads in Lysis/Detection buffer (0.1% BSA, 0.3% Tween-20 and 5 mM HEPES, pH7.4) for 45 min at the room temperature. Fluorescence changes were read using a Fusion-alpha HT microplate reader.; type: functional, cell-based, 104
T1 sequence (P43116 whole entry): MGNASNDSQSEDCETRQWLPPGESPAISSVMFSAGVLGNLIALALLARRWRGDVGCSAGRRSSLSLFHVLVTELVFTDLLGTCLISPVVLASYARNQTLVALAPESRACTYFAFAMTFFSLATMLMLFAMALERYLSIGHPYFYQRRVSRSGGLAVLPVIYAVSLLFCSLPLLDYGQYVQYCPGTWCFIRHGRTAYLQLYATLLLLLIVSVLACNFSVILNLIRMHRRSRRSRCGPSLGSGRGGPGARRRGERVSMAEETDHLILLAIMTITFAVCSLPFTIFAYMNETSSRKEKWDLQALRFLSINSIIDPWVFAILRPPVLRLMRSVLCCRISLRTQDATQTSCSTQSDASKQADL

[2] = molecular target: T1, Prostaglandin E2 receptor EP2 subtype; assay: Radioligand Binding Assay: The cell homogenate was centrifuged at 19000 r.p.m. for 20 min at 4° C. using a Beckman Ti-60 rotor. The resultant pellet was resuspended in TME buffer to give a final 1 mg/ml protein concentration, as determined by Biorad assay. Radioligand binding competition assays vs. [3H-]17-phenyl PGF2a , (5 nM) were performed in a 100 μl volume for 60 min. Binding reactions were started by adding plasma membrane fraction. The reaction was terminated by the addition of 4 ml ice-cold TRIS-HCl buffer and rapid filtration through glass fiber GF/B filters using a Brandel cell harvester. The filters were washed 3 times with ice-cold buffer and oven dried for one hour. [3H-] PGE2 (specific activity 180 Ci mmol) was used as the radioligand for EP receptors. [3H] 17-phenyl PGF2a, was employed for FP receptor binding studies. Binding studies employing EP1, EP2, EP4 and FP receptors were performed in duplicate in at least three separate experiments. A 200 μl assay volume was used. Incubations w; type: cell-free
Thromboxane A2 receptor = molecular target: T2, Thromboxane A2 receptor (Homo sapiens, UniProt P21731); assay: FLIPR Assay: Calciium Signal Studies of the Flipr. Cells were seeded at a density of 5×10^4 cells per well in Biocoati® Poly-D-lysine-coated black-wall, clear-bottom 96-well plates (Becton-Dickinson) and allowed to attach overnight in an incubator at 37° C. Cells were then washed two times with HBSS-HEPES buffer (Hanks Balanced Salt Solution without bicarbonate and phenol red, 20 mM HEPES, pH 7.4) using a Denley Cellwash plate washer (Labsystems). After 45 minutes of dye-loading in the dark, using the calcium-sensitive dye Fluo-4 AM at a final concentration of 2 μM, plates were washed four times with HBSS-HEPES buffer to remove excess dye leaving 100 μl in each well. Plates were re-equilibrated to 37° C. for a few minutes. Cells were excited with an Argon laser at 488 nm, and emission was measured through a 510-570 nm bandwidth emission filter (FLIPR, Molecular Devices, Sunnyvale, Calif.). Drug solution was added in a 50 μl volume to each well to give the desired final concentration.; type: functional
T2 sequence (P21731 whole entry): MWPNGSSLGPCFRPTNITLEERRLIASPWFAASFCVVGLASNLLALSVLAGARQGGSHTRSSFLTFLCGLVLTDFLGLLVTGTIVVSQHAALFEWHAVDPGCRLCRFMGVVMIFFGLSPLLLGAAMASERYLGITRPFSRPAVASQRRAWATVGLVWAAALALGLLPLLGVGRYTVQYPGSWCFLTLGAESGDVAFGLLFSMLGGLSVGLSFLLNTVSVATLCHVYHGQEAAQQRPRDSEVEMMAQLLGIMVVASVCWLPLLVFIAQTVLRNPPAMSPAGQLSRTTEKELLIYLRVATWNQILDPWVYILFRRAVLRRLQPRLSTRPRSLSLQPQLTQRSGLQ

O=C(O)c1ccc(CC[C@H]2C(=O)CC[C@@H]2/C=C/C(O)Cc2cccc(Br)c2)cc1 (single isomer, unassigned)
EC50 [1]: 8 nM | Ki [2]: 1170 nM | EC50 (Thromboxane A2 receptor): 100 nM
